{"source": "patent US20230263874A1", "about": "“TUMOR ANTIGENS FOR LIVER CANCER IMMUNOTHERAPY” (ISTITUTO NAZIONALE TUMORI IRCCS - FONDAZIONE G. PASCALE, priority 2020, published 2023)", "origin": "cited, not measured here", "test_system": "hepatocellular carcinoma", "conditions": "second-line treatment, advanced liver cancer not responded to sorafenib; cited from earlier work"}
{"smiles": "CNC(=O)c1cc(Oc2ccc(NC(=O)Nc3ccc(Cl)c(C(F)(F)F)c3)c(F)c2)ccn1", "note": "[Regorafenib]", "values": [{"measurement": "improvement in overall survival", "result": 2.8, "unit": "month"}, {"measurement": "reduction risk of death", "result": 38, "unit": "%"}]}
